Assay results reported in patent US20050282743A1, “Molecular interactions in cells” (Arbor Vita Corporation, priority 2001, published 2005).

Experiments:
Experiment in all cases: G' assay, TABLE 12
Type in all cases: binding
Settings in all cases: A450 nm class of biotinylated PL peptide bound; 0 in conc columns = peptide 10 uM, protein 5 ug/ml
KIAA807 = target: T1, KIAA807 (Homo sapiens, UniProt Q6P0Q8)
T1 construct: made in house; host or cells: E. coli (DH5alpha, BL21 or JM109)
T1 sequence (Q6P0Q8 1104-1192 limits assumed): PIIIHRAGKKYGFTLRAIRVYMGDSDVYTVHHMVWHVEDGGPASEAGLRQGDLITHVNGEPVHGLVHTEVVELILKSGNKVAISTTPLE
Method in brief: (§1)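 PL peptide binding to PDZ domain protein, peptide at 10 uM; protein at 5 ug/ml unless another concentration is listed for Kd determination. Bound peptide read at A450 nm and binned into classes 0–5.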

DLG1 (PDZ Domain 1, 2) = target: T2, DLG1 (PDZ Domain 1, 2) (Homo sapiens, UniProt Q12959)
T2 construct: made in house; host or cells: E. coli (DH5alpha, BL21 or JM109)
Method in brief: as §1

[1] = target: T3, PSD95 (PDZ Domain 1, 2, 3) (Homo sapiens, UniProt P78352)
T3 construct: When more than one PDZ domain was cloned, the DNA portion cloned represents the PDZ domains and the cDNA portion located between individual domains; made in house; host or cells: E. coli (DH5alpha, BL21 or JM109)
Method in brief: as §1

NeDLG (PDZ Domain 1, 2) = target: T4, NeDLG (PDZ Domain 1, 2) (Homo sapiens, UniProt Q92796)
T4 construct: When more than one PDZ domain was cloned, the DNA portion cloned represents the PDZ domains and the cDNA portion located between individual domains; made in house; host or cells: E. coli (DH5alpha, BL21 or JM109)
T4 sequence (Q92796 129-315 limits assumed): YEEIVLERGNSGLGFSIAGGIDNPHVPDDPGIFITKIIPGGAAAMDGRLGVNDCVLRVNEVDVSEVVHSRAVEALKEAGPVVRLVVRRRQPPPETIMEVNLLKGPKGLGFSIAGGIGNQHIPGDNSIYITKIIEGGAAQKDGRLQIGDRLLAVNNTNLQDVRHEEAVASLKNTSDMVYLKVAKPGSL
Method in brief: as §1

Measured: Classification

T2 sequence (Q12959 213-413 limits assumed): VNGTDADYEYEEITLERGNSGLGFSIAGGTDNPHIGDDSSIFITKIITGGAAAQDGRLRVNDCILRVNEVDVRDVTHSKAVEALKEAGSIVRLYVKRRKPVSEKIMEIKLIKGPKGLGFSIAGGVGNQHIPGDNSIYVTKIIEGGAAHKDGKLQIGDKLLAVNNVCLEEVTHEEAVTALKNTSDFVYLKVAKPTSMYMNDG
T3 sequence (P78352 58-398 limits assumed): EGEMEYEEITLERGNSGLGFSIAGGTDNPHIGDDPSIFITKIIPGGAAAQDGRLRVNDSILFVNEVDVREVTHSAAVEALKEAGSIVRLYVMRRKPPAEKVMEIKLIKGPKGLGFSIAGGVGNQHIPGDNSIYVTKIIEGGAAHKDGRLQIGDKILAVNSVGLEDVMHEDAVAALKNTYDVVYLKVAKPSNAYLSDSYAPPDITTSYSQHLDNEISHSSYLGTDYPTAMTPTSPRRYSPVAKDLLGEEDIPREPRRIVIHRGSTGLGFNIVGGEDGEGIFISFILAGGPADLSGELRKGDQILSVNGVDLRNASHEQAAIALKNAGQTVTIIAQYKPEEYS

CC[C@H](C)[C@H](NC(=O)[C@H](CCC(N)=O)NC(=O)CCCC[C@@H]1SC[C@@H]2NC(=O)N[C@@H]21)C(=O)N[C@@H](CO)C(=O)N1CCC[C@H]1C(=O)NCC(=O)NCC(=O)N[C@@H](CC(C)C)C(=O)N[C@@H](CCC(=O)O)C(=O)N1CCC[C@H]1C(=O)N1CCC[C@H]1C(=O)N[C@@H](CO)C(=O)N[C@@H](CCC(=O)O)C(=O)N[C@@H](CCCCN)C(=O)N[C@@H](Cc1c[nH]cn1)C(=O)N[C@@H](Cc1ccccc1)C(=O)N[C@@H](CCCNC(=N)N)C(=O)N[C@@H](CCC(=O)O)C(=O)N[C@H](C(=O)N[C@@H](CCC(=O)O)C(=O)N[C@H](C(=O)O)C(C)C)[C@@H](C)O [Tax]
5 (A450 nm of 4 more than 2× repeated): KIAA807 | DLG1 (PDZ Domain 1, 2) | [1] | NeDLG (PDZ Domain 1, 2)
